Assay results taken from PubChem BioAssay AID328 (DTP/NCI, 2004).
Values joined by “and” are separate entries in the source; they are usually repeats but may differ in a detail not shown here. Equal values may be shown once. Toxic doses and inconclusive results are not listed.

System: BDF1 mice, P388 leukemia ip, median survival T/C
Assay: NCI In Vivo Anticancer Drug Screen. Data for tumor model P388 Leukemia (intraperitoneal) in B6D2F1 (BDF1) mice
Details: endpoint: median survival time, higher = longer survival
Method in brief: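 Antitumour effect was judged in vivo: survival in drug-treated mice, normalised to that of vehicle-dosed controls, gives the reported T/C.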

[1] = dose: 100.0 mg/kg/injection, schedule: Q01DX009 (ip), vehicle: saline with Tween-80
[2] = dose: 100.0 mg/kg/injection, schedule: Q04DX003 (ip), vehicle: saline
[3] = dose: 200.0 mg/kg/injection, schedule: Q04DX003 (ip), vehicle: saline
[4] = dose: 400.0 mg/kg/injection, schedule: Q01DX009 (ip), vehicle: saline with Tween-80
[5] = dose: 400.0 mg/kg/injection, schedule: Q04DX003 (ip), vehicle: saline
[6] = dose: 200.0 mg/kg/injection, schedule: Q01DX009 (ip), vehicle: Klucel (hydroxypropylcellulose) (HPC)
[7] = dose: 200.0 mg/kg/injection, schedule: Q01DX009 (ip), vehicle: saline with Tween-80
[8] = dose: 100.0 mg/kg/injection, schedule: Q04DX003 (ip), vehicle: saline with Tween-80
[9] = dose: 200.0 mg/kg/injection, schedule: Q04DX003 (ip), vehicle: saline with Tween-80
[10] = dose: 400.0 mg/kg/injection, schedule: Q04DX003 (ip), vehicle: saline with Tween-80
[11] = dose: 12.5 mg/kg/injection, schedule: Q01DX009 (ip), vehicle: saline
[12] = dose: 25.0 mg/kg/injection, schedule: Q01DX009 (ip), vehicle: saline with Tween-80
[13] = dose: 25.0 mg/kg/injection, schedule: Q01DX009 (ip), vehicle: saline
[14] = dose: 50.0 mg/kg/injection, schedule: Q01DX009 (ip), vehicle: saline with Tween-80
[15] = dose: 100.0 mg/kg/injection, schedule: Q01DX009 (ip), vehicle: saline
[16] = dose: 100.0 mg/kg/injection, schedule: Q01DX009 (ip), vehicle: Klucel (hydroxypropylcellulose) (HPC)
[17] = dose: 400.0 mg/kg/injection, schedule: Q01DX009 (ip), vehicle: Klucel (hydroxypropylcellulose) (HPC)

`CC(=O)OC1C(OCc2ccccc2)OC(COCc2ccccc2)C(OC2OC(COCc3ccccc3)C(OCc3ccccc3)C(OCc3ccccc3)C2OCc2ccccc2)C1OCc1ccccc1` (configuration not stated) was tested, and the T/C (dose: 5.31 mg/kg/injection, schedule: Q01DX009 (ip), vehicle: Klucel (hydroxypropylcellulose) (HPC)) was 100 % of control and 104 % of control, the T/C (dose: 10.62 mg/kg/injection, schedule: Q01DX009 (ip), vehicle: Klucel (hydroxypropylcellulose) (HPC)) was 100 % of control and the T/C (dose: 21.25 mg/kg/injection, schedule: Q01DX009 (ip), vehicle: Klucel (hydroxypropylcellulose) (HPC)) was 87 % of control and 100 % of control.

For `CC(=O)OC1CCC2(C)CCCC(O)C2(O)C1` (configuration not stated), the T/C [1] was 103 % of control, the T/C [2] was 110 % of control and the T/C [3] was 90 % of control. For the same compound, the T/C [4] was 103 % of control and the T/C [5] was 110 % of control.

In the case of `C[C@]12CC[C@H]3C(=CCc4cc(O)ccc43)[C@@H]1CCC2=O`, the T/C (dose: 100.0 mg/kg/injection, schedule: Q04DX003 (ip), vehicle: Klucel (hydroxypropylcellulose) (HPC)) is reported as 95 % of control, the T/C [6] is reported as 91 % of control and the T/C (dose: 200.0 mg/kg/injection, schedule: Q04DX003 (ip), vehicle: Klucel (hydroxypropylcellulose) (HPC)) is reported as 90 % of control. The T/C (dose: 400.0 mg/kg/injection, schedule: Q04DX003 (ip), vehicle: Klucel (hydroxypropylcellulose) (HPC)) was 95 % of control.

`CCOC(=O)C/C(C)=N/NC(=O)C(=O)N/N=C(\C)CC(=O)OCC` was tested, and the T/C (dose: 75.0 mg/kg/injection, schedule: Q01DX009 (ip), vehicle: saline with Tween-80) was 113 % of control, the T/C (dose: 150.0 mg/kg/injection, schedule: Q01DX009 (ip), vehicle: saline with Tween-80) was 96 % of control and the T/C (dose: 300.0 mg/kg/injection, schedule: Q01DX009 (ip), vehicle: saline with Tween-80) was 96 % of control.

`Nc1[nH]c(=S)[nH]c(=O)c1NC(=O)C1CC1` was tested, and the T/C [1] was 100 % of control, the T/C [2] was 104 % of control and the T/C [7] was 100 % of control. For the same compound, the T/C [3] was 104 % of control, the T/C [4] was 100 % of control and the T/C [5] was 100 % of control.

In the case of `c1ccc2c(c1)ccc1[nH]c3ccccc3c12`, the T/C [8] is reported as 116 % of control, the T/C [9] is reported as 112 % of control and the T/C [10] is reported as 105 % of control.

For `CCOC(=O)c1ccccn1`, the T/C [11] was 108 % of control, the T/C [12] was 112 % of control and the T/C [13] was 105 % of control. The T/C [14] was 121 % of control, the T/C (dose: 50.0 mg/kg/injection, schedule: Q01DX009 (ip), vehicle: saline) was 94 % of control and the T/C [1] was 105 % of control. For the same compound, the T/C [15] was 103 % of control and the T/C [7] was 110 % of control.

In the case of `O=C(N/N=C\c1c(Cl)cccc1Cl)c1ccccc1`, the T/C (dose: 50.0 mg/kg/injection, schedule: Q04DX003 (ip), vehicle: acetone) is reported as 113 % of control, the T/C (dose: 100.0 mg/kg/injection, schedule: Q04DX003 (ip), vehicle: acetone) is reported as 95 % of control and the T/C (dose: 200.0 mg/kg/injection, schedule: Q04DX003 (ip), vehicle: acetone) is reported as 90 % of control.

`N#CCc1ccc2c(c1)[nH]c1ccccc12` was tested, and the T/C (dose: 50.0 mg/kg/injection, schedule: Q04DX003 (ip), vehicle: saline sonified) was 104 % of control, the T/C (dose: 100.0 mg/kg/injection, schedule: Q04DX003 (ip), vehicle: saline sonified) was 109 % of control and the T/C (dose: 200.0 mg/kg/injection, schedule: Q04DX003 (ip), vehicle: saline sonified) was 104 % of control.

With `CCCCC#CC(=O)OC` the T/C [12] was 116 % of control, the T/C [14] was 104 % of control and the T/C [1] was 100 % of control. The T/C [7] was 114 % of control.

In the case of `CN(C)C1C(=O)C(C(=O)NCNC(CCS(C)=O)C(=O)O)=C(O)C2(O)C(=O)C3=C(O)c4c(O)cccc4C(C)(O)C3CC12` (configuration not stated), the T/C (dose: 100.0 mg/kg/injection, schedule: Q01DX001 (ip), vehicle: saline) is reported as 100 % of control, the T/C (dose: 200.0 mg/kg/injection, schedule: Q01DX001 (ip), vehicle: saline) is reported as 90 % of control and the T/C (dose: 400.0 mg/kg/injection, schedule: Q01DX001 (ip), vehicle: saline) is reported as 86 % of control.

`Cc1ccc2[nH]c(=S)n(-c3cccc(C(F)(F)F)c3)c(=O)c2c1` was tested, and the T/C [12] was 102 % of control, the T/C [14] was 92 % of control and 94 % of control and the T/C [1] was 102 % of control. For the same compound, the T/C [7] was 93 % of control and the T/C [4] was 102 % of control.

In the case of `COc1ccc(/C(C#N)=C2C=C(Cl)/C(=N/O)C=C/2Cl)cc1`, the T/C (dose: 100.0 mg/kg/injection, schedule: Q01DX001 (ip), vehicle: Klucel (hydroxypropylcellulose) (HPC)) is reported as 90 % of control, the T/C [16] is reported as 95 % of control and the T/C (dose: 200.0 mg/kg/injection, schedule: Q01DX001 (ip), vehicle: Klucel (hydroxypropylcellulose) (HPC)) is reported as 90 % of control. For the same compound, the T/C [6] was 87 % of control, the T/C (dose: 400.0 mg/kg/injection, schedule: Q01DX001 (ip), vehicle: Klucel (hydroxypropylcellulose) (HPC)) was 86 % of control and the T/C [17] was 104 % of control.

`O=C(Nc1cccc2c1N(C(=O)c1ccco1)CCC2)c1ccco1` was tested, and the T/C [8] was 91 % of control, the T/C [9] was 100 % of control and the T/C [10] was 104 % of control.

With `CCOc1cccc(OCC)c1C` the T/C (dose: 75.0 mg/kg/injection, schedule: Q01DX009 (ip), vehicle: Klucel (hydroxypropylcellulose) (HPC)) was 100 % of control, the T/C (dose: 150.0 mg/kg/injection, schedule: Q01DX009 (ip), vehicle: Klucel (hydroxypropylcellulose) (HPC)) was 100 % of control and the T/C (dose: 300.0 mg/kg/injection, schedule: Q01DX009 (ip), vehicle: Klucel (hydroxypropylcellulose) (HPC)) was 100 % of control.

In the case of `CC(C)CCCCCCCCOC(=O)c1ccccc1C(=O)OCCCCCCCCC(C)C`, the T/C [8] is reported as 109 % of control, the T/C [9] is reported as 109 % of control and the T/C [10] is reported as 104 % of control.

With `CC1NCCNCCNCCNC(C)c2cccc1n2` (configuration not stated) the T/C (dose: 6.25 mg/kg/injection, schedule: Q01DX009 (ip), vehicle: saline) was 118 % of control, the T/C [11] was 106 % of control and the T/C [13] was 118 % of control.

With `O=C(CN1CCOCC1)Nc1nc(-c2ccc(Cl)cc2)cs1` the T/C (dose: 50.0 mg/kg/injection, schedule: Q01DX005 (ip), vehicle: saline with Tween-80) was 110 % of control and the T/C (dose: 100.0 mg/kg/injection, schedule: Q01DX005 (ip), vehicle: saline with Tween-80) was 91 % of control.

`CC1(C)N=C(N)N=C(N)N1c1cccc(CCCCOc2ccccc2)c1` was tested, and the T/C (dose: 8.0 mg/kg/injection, schedule: Q01DX009 (ip), vehicle: saline with Tween-80) was 150 % of control, the T/C (dose: 12.0 mg/kg/injection, schedule: Q01DX009 (ip), vehicle: saline with Tween-80) was 150 % of control and the T/C (dose: 18.0 mg/kg/injection, schedule: Q01DX009 (ip), vehicle: saline with Tween-80) was 170 % of control.

`OCCN1CCOCC1` was tested, and the T/C [15] was 109 % of control, the T/C (dose: 200.0 mg/kg/injection, schedule: Q01DX009 (ip), vehicle: saline) was 109 % of control and the T/C (dose: 400.0 mg/kg/injection, schedule: Q01DX009 (ip), vehicle: saline) was 109 % of control.

With `CSc1nc(N)c2c(C(N)=O)cc(=O)[nH]c2n1` the T/C (dose: 100.0 mg/kg/injection, schedule: Q04DX002 (ip), vehicle: saline with Tween-80) was 101 % of control and the T/C (dose: 200.0 mg/kg/injection, schedule: Q04DX002 (ip), vehicle: saline with Tween-80) was 90 % of control.

In the case of `CCCCN(C)/N=N/c1[nH]ncc1C(=O)OCC`, the T/C (dose: 100.0 mg/kg/injection, schedule: Q04DX003 (ip), vehicle: other) is reported as 116 % of control, the T/C (dose: 200.0 mg/kg/injection, schedule: Q04DX003 (ip), vehicle: other) is reported as 108 % of control and the T/C (dose: 400.0 mg/kg/injection, schedule: Q04DX003 (ip), vehicle: other) is reported as 100 % of control.

With `COC(=O)/C=C/c1ccc(Cl)cc1` the T/C [16] was 95 % of control, the T/C [6] was 95 % of control and the T/C [17] was 91 % of control.

With `CCCCCCOCCN1CCN(CCCN2c3ccccc3Sc3ccc(C(F)(F)F)cc32)CC1` the T/C (dose: 12.5 mg/kg/injection, schedule: Q04DX003 (ip), vehicle: saline with Tween-80) was 121 % of control, the T/C (dose: 25.0 mg/kg/injection, schedule: Q04DX003 (ip), vehicle: saline with Tween-80) was 97 % of control and 112 % of control and the T/C (dose: 50.0 mg/kg/injection, schedule: Q04DX003 (ip), vehicle: saline with Tween-80) was 94 % of control.

For `NCCNCC[OH2+].NCCNCC[OH2+].[Cu+2].[O-][Cl+3]([O-])([O-])[O-]`, the T/C [11] was 100 % of control and the T/C [13] was 105 % of control.

`COc1ccccc1C(=O)NS(=O)(=O)c1ccc(Cl)cc1` was tested, and the T/C (dose: 50.0 mg/kg/injection, schedule: Q01DX009 (ip), vehicle: Klucel (hydroxypropylcellulose) (HPC)) was 105 % of control, the T/C [16] was 110 % of control and the T/C [6] was 120 % of control.
